How the values were obtained:
CMV [1] = test: Exposure–response analysis of efficacy, key secondary endpoint: CMV viremia clearance and symptom control at week 8 maintained through week 16 (SOLSTICE); format: in vivo, human
Protocol: (§1) The exposure–response analyses for maribavir were based on data collected from transplant recipients with CMV infections that were refractory to treatment with ganciclovir, valganciclovir, foscarnet, or cidofovir in the phase 3 SOLSTICE study (ClinicalTrials.gov: NCT02931539). SOLSTICE was a multicenter, open-label, active-controlled study in which patients were randomized 2:1 to receive maribavir 400 mg BID or IAT for 8 weeks, with 12 weeks of follow-up. The primary endpoint was confirmed CMV clearance at the end of week 8, and the key secondary endpoint was achievement of CMV clearance and symptom control at the end of week 8, maintained through week 16. TE CMV mutation conferring resistance to maribavir was assessed as an exploratory endpoint. Full details of the SOLSTICE study have been published previously.
(§2) Posterior Bayes parameters of the final PopPK model were used to derive rich concentration–time profiles for maribavir. Actual dosing history and factors affecting the PK of maribavir (i.e., body weight and time-varying presence of strong CYP3A4 inhibitors or strong CYP3A4 inducers) were considered in the predictions.
(§3) Data set preparation, exploration, visualization of the data and exposure-response analyses were performed using R® (version 4.0.5 for efficacy and resistance analyses; version 4.0.2 for safety analysis) with comprehensive R® archive network (CRAN) and Certara Strategic Consulting (CSC) package. Firth correction on logistic regression was done based on library “logistf”. Logistic regressions with log-linear exposure effect or Emax exposure effect were performed using NONMEM Version VII (version 7.4).
(§4) Maribavir exposure parameters (AUCss, Cmax.ss, and Ctrough.ss) were combined with the primary and key secondary efficacy endpoints, and with TE CMV mutations conferring resistance to maribavir from the SOLSTICE study. The following covariates were included in the dataset to identify potential influencing factors: transplant type (HCT, SOT); CMV DNA level (high, intermediate, low) at baseline; symptom status (symptomatic or asymptomatic) at baseline; CMV resistant at baseline (yes, no); donor (D) and recipient (R) CMV serostatus (D+/R−, D+/R+, or D−/R+, D−/R−); antilymphocyte use (yes, no); immune function status as measured by total white blood cells from hematology panel at baseline; CMV-specific CD4 + CD69 + and CD8 + CD69 + T cells from immune function assay as continuous variables at baseline; enrolling region (North America, Europe, Asia Pacific); prior use of CMV prophylaxis (yes, no); age (as a continuous parameter) and age group (12 to < 18 years; 18 to < 45 years; 45 to < 65 years; ≥65 years); sex (male, female); race and ethnicity; TE CMV maribavir-resistant mutations (yes, no); and temporal identification of maribavir resistance (no, on maribavir treatment, post-maribavir treatment).
(§5) The exposure–response analyses were performed using a logistic regression model whereby a response can be defined as 0 (non-responder) or 1 (responder). Logistic regression analyses were performed to explore potential associations with maribavir exposure and the probability of response. The logistic regression model had the following form, assuming that maribavir exposure is included in the model:1 [drawing 1]
(§6) Pi is the probability of the event in the ith patient and α is the baseline Ln (odds) of the event. The model assumes a linear exposure effect on logit scale, with the parameter α representing the intercept, while β1 represents the slope linking the exposure parameter (X1) of maribavir (AUCss, Cmax.ss, and Ctrough.ss) to the response. The statistical significance of α and β1 was tested in the logistic regression models with a p value of < 0.05, and 95% CIs were provided for each parameter. The odds ratio (OR) for β1 was derived for a specific unit increment of the PK parameter. […]

CMV [2] = test: Exposure–response analysis of efficacy, primary endpoint: confirmed CMV viremia clearance at week 8 (SOLSTICE); format: in vivo, human; settings: for Probability of being responder, primary endpoint: AUCss 200 µg∙h/mL
Protocol: as §1, §2, §3, §4, §5, §6

[3] = key secondary endpoint, reference <0.5%
[4] = primary endpoint, reference < 0.5%

## CC(C)Nc1nc2cc(Cl)c(Cl)cc2n1[C@H]1O[C@@H](CO)[C@H](O)[C@@H]1O [maribavir]
CMV [1]; 1st quartile of AUCss
  Proportion of responders, key secondary endpoint: 31%
CMV [1]; 2nd quartile of AUCss
  Proportion of responders, key secondary endpoint: 25%
CMV [1]; 3rd quartile of AUCss, n = 9
  Proportion of responders, key secondary endpoint: 16%
CMV [1]; 4th quartile of AUCss, n = 3
  Proportion of responders, key secondary endpoint: 5%
CMV [1]; baseline CD8 + CD69 + cell count ≥ 2%, otherwise reference, AUCss 200 µg∙h/mL
  Probability of being a responder, key secondary endpoint: 77.9%
CMV [1]; developed TE CMV maribavir-resistant mutation, CD8 + CD69 + < 0.5%, low CMV DNA, no prior prophylaxis, AUCss 200 µg∙h/mL
  Probability of being a responder, key secondary endpoint: 2.5%
CMV [1]; exposure–response population n = 231, 400 mg BID, 44 patients
  Patients meeting key secondary endpoint (clearance and symptom control at week 8, maintained through week 16): 19%
CMV [1]; intermediate/high CMV DNA levels, otherwise reference, AUCss 200 µg∙h/mL
  Probability of being a responder, key secondary endpoint: 19.7%
CMV [1]; key secondary endpoint
  Logistic regression Estimate (SE): Intercept: 0.814 (0.543)
  OR (95% CI): prior use of CMV prophylaxis: 0.441 (0.191, 0.969)
  OR (95% CI): treatment-emergent CMV mutation conferring resistance to maribavir: 0.0381 (2.97×10^–4, 0.284)
CMV [1]; key secondary endpoint, increment of 50 µg·h/mL
  OR (95% CI): AUCss of maribavir: 0.740 (0.611, 0.870)
CMV [1]; [3]
  Logistic regression Estimate (SE): baseline CD8+CD69+ cell count ≥2%: 1.65 (0.552)
  OR (95% CI): baseline CD8+CD69+ cell count not reported: 0.899 (0.326, 2.34)
  OR (95% CI): baseline CD8+CD69+ cell count ≥0.5% to <2%: 0.594 (0.159, 1.88)
  OR (95% CI): baseline CD8+CD69+ cell count ≥2%: 5.18 (1.82, 15.9)
CMV [1]; key secondary endpoint, reference low
  OR (95% CI): baseline CMV DNA level intermediate/high: 0.363 (0.129, 0.910)
CMV [1]; p = 0.001
  Relationship between maribavir exposure (AUCss) and probability of response for the key secondary endpoint: negative relationship
CMV [1]; prior use of CMV prophylaxis, otherwise reference, AUCss 200 µg·h/mL
  Probability of being a responder, key secondary endpoint: 23.0%
CMV [1]; reference: no TE mutation, CD8 + CD69 + < 0.5%, low CMV DNA, no prior prophylaxis, AUCss 200 µg∙h/mL
  Probability of being a responder, key secondary endpoint: 40.3%
CMV [2]; 1st quartile of AUCss (range 72.2–170)
  Observed proportion of responders, primary endpoint: 59%
CMV [2]; 2nd quartile of AUCss (range 170–238)
  Observed proportion of responders, primary endpoint: 72%
CMV [2]; 3rd quartile of AUCss (range 238–354)
  Observed proportion of responders, primary endpoint: 59%
CMV [2]; 4th quartile of AUCss (range 354–802)
  Observed proportion of responders, primary endpoint: 38%
CMV [2]; CD8 + CD69 + cell count ≥ 2%, no TE mutation
  Probability of being responder, primary endpoint: 90.0%
CMV [2]; developed TE CMV maribavir-resistant mutation, CD8 + CD69 + < 0.5%
  Probability of being responder, primary endpoint: 1.3%
CMV [2]; excluding 60 patients with TE CMV mutation conferring resistance, n = 171, p = 0.0709
  Relationship between maribavir exposure and probability of CMV viremia clearance at week 8: no statistical exposure–efficacy relationship
CMV [2]; exposure–response population n = 231, 400 mg BID, 131 patients
  Patients meeting primary endpoint of confirmed CMV viremia clearance at week 8: 57%
CMV [2]; n = 231, p = 0.008
  Relationship between maribavir exposure (AUCss) and probability of CMV viremia clearance at week 8: negative relationship
CMV [2]; no TE CMV maribavir-resistant mutation, CD8 + CD69 + < 0.5%
  Probability of being responder, primary endpoint: 74.2%
CMV [2]; primary endpoint
  OR (95% CI): treatment-emergent maribavir resistance on maribavir treatment: 0.00457 (3.59 × 10^–5, 0.0333)
CMV [2]; primary endpoint, week 8
  Non-responders among patients with TE maribavir-resistant CMV mutations: 81%
CMV [2]; [4]
  Logistic regression Estimate (SE): baseline CD8+CD69+ cell count ≥2%: 1.19 (0.630)
  OR (95% CI): baseline CD8+CD69+ cell count not reported: 0.730 (0.328, 1.66)
  OR (95% CI): baseline CD8+CD69+ cell count ≥0.5% to <2%: 0.739 (0.289, 1.98)
  OR (95% CI): baseline CD8+CD69+ cell count ≥2%: 3.29 (1.07, 13.4)
